Measurements taken from paper PMC7481357, “N-terminal Myristoylation Enhanced the Antimicrobial Activity of Antimicrobial Peptide PMAP-36PW” (Frontiers in Cellular and Infection Microbiology, 2020).
Entries after “also recorded” stand apart in the source; their conditions may differ.

Columns and labels:
[1] = test system: L. monocytogenes CICC 21634; format: cell-based, Listeria monocytogenes; conditions: L. monocytogenes CICC 21634; * indicates resistant (CLSI, 2020)
Procedure: (§1) The MICs of Myr-36PW in vitro were measured through microdilution in accordance with the Clinical and Laboratory Standards Institute (CLSI, [2020]). The bacterial cells were cultured for 12 h at 37°C in the appropriate medium and then diluted to 1 × 10^6 CFU/mL. Equal volumes (100 μL) of bacterial cell suspension and two-fold serially diluted different concentrations peptides (0.0039–256 μg/mL) were added to each well of the sterile 96-well plate. The samples were incubated for 18 h at 37°C. After incubation, the MICs of the peptides were determined by evaluating the growth based on the OD600 of the cultures.

[2] = test system: P. aeruginosa GIM 1.551; test: Inhibition zone assay (disk diffusion); format: cell-based, Pseudomonas aeruginosa; parameters: key: +, means the peptide has antibacterial activity; conditions: disk 10 μg peptide, 18 h at 37°C, * P < 0.05, ** P < 0.01 vs PMAP-36PW
Procedure: (§2) The inhibition zone assay was performed through the disk diffusion to evaluate the antimicrobial activity of Myr-36PW in vitro (Dunne et al., [2017]). The four above-mentioned bacterial strains were used as experimental strains, with L. monocytogenes CICC 21634 cultured in BHI medium, and P. aeruginosa GIM 1.551 cultured in TSB medium. The bacterial cells were cultured for 12 h at 37°C in the appropriate medium, and the bacterial cell suspension was spread on LB agar. The disks containing 10 μg of peptides (1 μg/μL) were attached to the solid medium and incubated at 37°C for 18 h. Finally the diameter of the inhibition zone was measured.

[3] = test system: S. typhimurium SL 1344; test: Inhibition zone assay (disk diffusion); format: cell-based, Salmonella typhimurium; parameters: key: +, means the peptide has antibacterial activity; conditions: disk 10 μg peptide, 18 h at 37°C, * P < 0.05, ** P < 0.01 vs PMAP-36PW
Procedure: as §2

[4] = test system: P. aeruginosa GIM 1.551; format: cell-based, Pseudomonas aeruginosa; conditions: P. aeruginosa GIM 1.551; * indicates resistant (CLSI, 2020)
Procedure: as §1

[5] = test system: L. monocytogenes CICC 21634; test: Inhibition zone assay (disk diffusion); format: cell-based, Listeria monocytogenes; parameters: key: +, means the peptide has antibacterial activity; conditions: disk 10 μg peptide, 18 h at 37°C, * P < 0.05, ** P < 0.01 vs PMAP-36PW
Procedure: as §2

[6] = test system: S. aureus ATCC 25923; format: cell-based, Staphylococcus aureus; conditions: S. aureus ATCC 25923; * indicates resistant (CLSI, 2020)
Procedure: as §1

[7] = test system: S. aureus ATCC 25923; test: Inhibition zone assay (disk diffusion); format: cell-based, Staphylococcus aureus; parameters: key: +, means the peptide has antibacterial activity; conditions: disk 10 μg peptide, 18 h at 37°C, * P < 0.05, ** P < 0.01 vs PMAP-36PW
Procedure: as §2

[8] = test system: S. typhimurium SL 1344; format: cell-based, Salmonella typhimurium; conditions: S. typhimurium SL 1344; * indicates resistant (CLSI, 2020)
Procedure: as §1

[9] = test system: P. aeruginosa GIM 1.551; test: Subcutaneous abscess model; format: in vivo, BALB/c mice; conditions: injected 20 μL, 1 μg/μL, once a day for 3 days
Procedure: A subcutaneous abscess model in vivo was established as previously reported (Zhao et al., [2019]). The mouse dorsal region with 3.0 cm diameter was treated with hair pusher. A total of 120 mice were randomly divided into two experimental models, one was challenged with S. aureus ATCC 25923 (2.5 × 10^8 CFU/mL, 60 μL), and the other was challenged with P. aeruginosa GIM 1.551 (3.0 × 10^8 CFU/mL, 60 μL). In the S. aureus ATCC 25923 model, 60 mice were divided into six groups of 10 members. The mice with no infection and treatment was used as a blank control, those directly injected with PBS (20 μL) as the negative control group, those injected with benzylpenicillin potassium (20 μL, 1 μg/μL) as the positive control group, and the remaining three groups as the treatment groups injected with Myr-36PW (20 μL, 1 μg/μL), PMAP-36PW (20 μL, 1 μg/μL), and PMAP-36 (20 μL, 1 μg/μL). The procedure in P. aeruginosa GIM 1.551 model is the same as that in S. aureus ATCC 25923 model, except for the use of ampicillin sodium as a positive control. Treatment once a day for 3 days was initiated when the mice developed prominent pustules on their backs. A day after the treatment, the size of the abscess was observed, and its tissues were excised, homogenized, and serially diluted. Bacteria CFU counts were calculated.
Figure 10 Treatment efficacy of subcutaneous abscess by Myr-36PW in vivo. Mice were injected with S. aureus ATCC 25923 or P. aeruginosa GIM 1.551 to develop a subcutaneous abscess before treatment. (A) Changes in the abscess area of mice after 3 days treatment. (B,C) Quantitative analysis of bacterial CFU in abscess area that received 3 days treatment under various experimental conditions. The number of CFU in each treatment group was normalized by using the CFU of the experimental group divided by the CFU of the PBS group (100%). BP is benzylpenicillin potassium, AS is ampicillin sodium. Data represent the mean ± SD of five individual experiments. *P < 0.05 and **P < 0.01, compared with PBS. ^#P < 0.05 and ^##P < 0.01, compared with PMAP-36PW.

[10] = test system: P. aeruginosa GIM 1.551; test: Wound infection model; format: in vivo, BALB/c mice; conditions: 20 μL, 1 μg/μL, once a day for 7 days
Procedure: Sixty mice with ten mice in each group were used in the experiment. Infection and treatment were performed as previously described (Hong et al., [2017]). The mouse dorsal region with a diameter of 3.0 cm was treated with hair pusher, and a full-thickness 2.0 cm diameter wound was created by excising the skin and infected by direct seeding with P. aeruginosa GIM 1.551 (1 × 10^8 CFU/mL, 50 μL). The wound was then covered with sterile gauze to prevent cross contamination. Treatment was initiated at 24 h after bacterial inoculation. The mice with no infection and treatment was used as a blank control, those provided with PBS (20 μL) as the negative control group, those administered with ampicillin sodium (20 μL, 1 μg/μL) as the positive control group, and the remaining were those treated with the three peptides (20 μL, 1 μg/μL) once a day for 7 days as the treatment groups. The mice were sacrificed after the 7 day treatment. Changes in the wound were observed, and the infected sections of skin were aseptically contained, homogenized, and serially diluted. Bacterial CFU counts were obtained.
Figure 11 Treatment value of wound by Myr-36PW in vivo. A 2 cm wound was cut with a knife and directly injected with P. aeruginosa GIM 1.551. (A) Wound changes of mice after 7 days treatment. (B) Bacterial CFU in the wound area treated for 7 days under different experimental conditions. AS is ampicillin sodium. Data represent the mean Log (CFU) ± SD of five individual experiments. *P < 0.05 and **P < 0.01, compared with PBS. ^#P < 0.05, compared with PMAP-36PW.

[11] = test system: P. aeruginosa GIM 1.551; test: Pneumonia (lung infection) model; format: in vivo, BALB/c mice; conditions: intranasal 40 μL, 1 μg/μL, once a day for 3 days
Procedure: A pneumonia model in vivo was established as previously reported, with minor modification (Cortés et al., [2002]; Aoki et al., [2009]; Shi et al., [2018]). A total of 120 mice were randomly divided into two experimental models, one was intranasal inoculation of S. aureus ATCC 25923 (8.3 × 10^9 CFU/mL, 50 μL), and the other was intranasal inoculation of P. aeruginosa GIM 1.551 (4.5 × 10^10 CFU/mL, 50 μL). In the S. aureus ATCC 25923 model, 60 mice were divided into the following six groups of 10 mice each: no infection and treatment was used as a blank control, those with intranasal administration of PBS (40 μL) as the negative control group, those administered with benzylpenicillin potassium (40 μL, 1 μg/μL) as the positive control group, and the remaining three corresponded to Myr-36PW (40 μL, 1 μg/μL), PMAP-36PW (40 μL, 1 μg/μL), and PMAP-36 groups (40 μL, 1 μg/μL). The procedure for P. aeruginosa GIM 1.551 model is the same as for S. aureus ATCC 25923 model, except for the use of ampicillin sodium as the positive control. After 4 h post-inoculation, treatment was initiated, once a day for 3 days. The mice were sacrificed 24 h after the treatment. Changes in the appearance of lung tissues were observed, and lung tissues were removed aseptically from the mice. Half of the removed lung tissues were gently fixed in buffered formaldehyde solution for histopathological assessment by hematoxylin and eosin (H&E) staining. Pathological changes were scored to provide individual therapeutic status as described previously (Lei et al., [2018]). The remaining lung tissues were added with 1 mL of PBS, homogenized, and serially diluted. Bacterial CFU counts were determined.
Figure 8 Therapeutic effect for pneumonia by Myr-36PW in vivo. Mice were injected with S. aureus ATCC 25923 or P. aeruginosa GIM 1.551 to form pneumonia, and lungs (n = 5) in each group were collected on day 4 after intranasal bacterial inoculation. (A) Morphological changes of lung tissues. (B) Representative histopathological images of processed lung section with hematoxylin and eosin (H&E) staining. Images are presented at a magnification of 20×. a: inflammatory cell infiltration. b: the alveolar wall is thickened. c: alveolar wall congestion or alveolar hemorrhage. (C,D) Pathological scores of the lung sections. Scoring standard: 1 indicated no pathology, 2 indicated local pulmonary congestion and inflammatory cell infiltration, 3 indicated pulmonary congestion and a large number of inflammatory cell infiltration, affecting <20% of the section, 4 indicated pulmonary congestion and a large number of inflammatory cell infiltration, affecting 20–50% of the section, and 5 indicated pulmonary congestion and a large number of inflammatory cell infiltration, affecting >50% of the section. (E,F) Bacterial CFU in lung homogenate. BP is benzylpenicillin potassium, AS is ampicillin sodium. Data represent the mean ± SD of five individual experiments.

With `CO/N=C(\C(=O)N[C@@H]1C(=O)N2C(C(=O)[O-])=C(CSC(=O)c3ccco3)CS[C@H]12)c1csc(N)n1.[Na+]` [Ceftiofur Sodium, Ceftiofur sodium] the “MICs of different classes of antibiotics” value [1] was 32* μg/mL, the “In vitro antibacterial activity (disk diffusion)” value (from here on “In vitro antibacterial activity”) [2] was “+” and the “In vitro antibacterial activity” value [3] was “+”. The “MICs of different classes of antibiotics” value [4] was 64* μg/mL, the “In vitro antibacterial activity” value [5] was “+” and the “MICs of different classes of antibiotics” value [6] was under 0.25 µg/mL. The “In vitro antibacterial activity” value [7] was “+” and the “MICs of different classes of antibiotics” value [8] was 4 µg/mL.

In the case of `CC1(C)S[C@@H]2[C@H](NC(=O)[C@H](N)c3ccccc3)C(=O)N2[C@H]1C(=O)O` [Ampicillin sodium], the “MICs of different classes of antibiotics” value [1] is reported as 64 µg/mL, the Abscess area [9] is reported as “significantly reduced the abscess area and effectively suppressed its growth” and the “Bacterial CFU in abscess area” value ([9]; vs PMAP-36PW: Myr-36PW P < 0.05, ampicillin sodium P < 0.01, n = 5) is reported as “significant difference compared with that of PBS group (P < 0.01); also recorded: lower than that of PMAP-36PW group”. For the same compound, the “MICs of different classes of antibiotics” value [4] was 32 µg/mL, the Wound size [10] was “significantly reduced” and the “Bacterial CFU in the wound area” value ([10]; vs PBS group: PMAP-36PW P < 0.05, Myr-36PW and ampicillin sodium P < 0.01, n = 5) was “significantly reduced”. For the same compound, the “Lung histopathology (H&E)” value [11] was “a complete alveolar structure, reduced blood stasis, and large reduction in inflammatory cells”, the “Bacterial CFU in lung homogenate” value ([11]; n = 5) was “decreased the P. aeruginosa GIM 1.551 CFU level compared with the PMAP-36PW group (P < 0.05)” and the “Pathological scores of the lung sections” value ([11]; n = 5) was “lower scores than PMAP-36PW group (P < 0.05)”. The “MICs of different classes of antibiotics” value [6] was 0.5 µg/mL and the “MICs of different classes of antibiotics” value [8] was 16 µg/mL.
